What was measured:
[1] = Blood-to-plasma ratio in rat whole blood; assay type: in vitro ADME; details: 1 μmol/L
Protocol: (§1) The blood‐to‐plasma ratios of THY1773 were analyzed using pooled fresh whole blood (anticoagulant: EDTA‐2K) and control plasma separated from fresh whole blood in parallel from rats, dogs, and humans. Whole blood and control plasma containing 1 μmol/L THY1773 were incubated at 37°C for 30 min in a shaking water bath. The incubated whole blood was centrifuged at 2000 × g for 10 min at 4°C to obtain plasma. An aliquot of each plasma sample (i.e., isolated plasma from incubated whole blood and control plasma) was mixed with 8 volumes of acetonitrile/methanol (9:1, vol/vol) containing the IS. After centrifugation at 3974 × g for 10 min at 4°C, the supernatant was subjected to liquid chromatography/tandem mass spectrometry (LC‐MS/MS) analysis. The blood‐to‐plasma ratio was calculated by dividing the […].

[2] = Blood-to-plasma ratio in human whole blood; assay type: in vitro ADME; details: 1 μmol/L
Protocol: as §1

[3] = Plasma protein binding by equilibrium dialysis, rat plasma; assay type: in vitro ADME; details: 300 ng/ml
Protocol: (§2) The plasma protein binding of THY1773 in rats, dogs, and humans was evaluated by an equilibrium dialysis method using a 96‐well equilibrium dialysis plate (HTDialysis) with a 12–14 kDa cut‐off dialysis membrane. THY1773 was dissolved in dimethyl sulfoxide, and spiked with rat, dog, or human plasma at a final concentration of 300 ng/ml. An aliquot of plasma containing THY1773 and sodium phosphate buffer (pH 7.4) was added into the donor side and the receiver side of each designated well, respectively. After incubation for 6 h at a rate of 50 oscillation/min at 37°C in an air incubator, an aliquot of each side of each well was collected and mixed with acetonitrile/methanol (9:1, vol/vol) containing the IS. Each sample was centrifuged at 3974 × g for 10 min at 4°C to remove the precipitated proteins, and the resultant supernatants were subjected to LC‐MS/MS analysis. The protein binding (%) was calculated using the Boudinot formula (Boudinot & Jusko, 1984).

[4] = Plasma protein binding by equilibrium dialysis, dog plasma; assay type: in vitro ADME; details: 300 ng/ml
Protocol: as §2

[5] = PK and urinary excretion in dogs; assay type: in vivo, dog
Protocol: The PK and urinary excretion of THY1773 in rats (1 mg/kg) and dogs (0.5 mg/kg) under fasted conditions were evaluated following intravenous or oral administration of THY1773. THY1773 was dissolved in 10% (vol/vol) hydroxypropyl‐β‐cyclodextrin at pH 4 for intravenous administration, or suspended in 0.5% (wt/vol) methyl cellulose 400 for oral administration. After a single intravenous or oral administration of THY1773, blood samples were collected into tubes containing EDTA‐2K as an anticoagulant. The scheduled time points were predose (dog only), 5 (intravenous only), 15, 30 min, 1, 2, 4, 8, 12, and 24 h postdose. Plasma was separated by centrifugation. Urine samples were collected into bottles set on ice for 24 h after intravenous administration of THY1773. Plasma and urine samples were treated with 4 volumes of acetonitrile/methanol (9:1, vol/vol) containing the IS. After centrifugation (3639 × g, 4°C, 10 min) to remove precipitated proteins, the supernatant was subjected to LC‐MS/MS analysis. The distributions of THY1773 into brain and pituitary gland in rats were investigated after a single oral administration of THY1773 (1 mg/kg). Blood was collected from the tail vein into tubes containing EDTA‐2K at 1 h after a single oral administration of THY1773, and the plasma was separated by centrifugation (12000 × g, 4°C, 3 min). After blood collection, the brain and pituitary gland were excised followed by homogenization with approximately 4 volumes of distilled water. Plasma, brain, and pituitary samples were treated with 4 volumes of acetonitrile/methanol (9:1, vol/vol) containing the IS and centrifuged (3639 × g, 4°C, 10 min). Aliquots of the supernatant were subjected to LC‐MS/MS analysis.
The plasma concentration–time profiles of THY1773 were analyzed by a non‐compartmental analysis with PK analysis software Phoenix WinNonlin® (version 6.1; Certara), and the PK parameters were calculated. The fraction excreted in urine was calculated by dividing the amount of THY1773 excreted in urine by the administered dose.

[6] = Prediction of human CLtotal (FCIM, two-species allometry, IVIVE)
Description: Of the many reported methods for the prediction of human CL, the top two methods reported by Ring et al. (2011) were selected based on prediction accuracy; that is, the unbound fraction corrected intercept method (FCIM) and two‐species‐based allometry (rat and dog) described by Equations (2) and (3), respectively (Tang, Hussain, Leal, Mayersohn, & Fluhler, 2007; Tang & Mayersohn, 2005): (2) CLhuman(mL/min/kg)=33.35×(a/Rfu)^0.77/Humanbodyweight(kg) (3) CL=a×(Humanbodyweight)^0.628 where the allometric coefficient (a) is obtained from the intercept of the simple allometry log–log plot between rats and dogs, and Rfu is the ratio of unbound fraction in plasma between rats and humans. Human body weight was assumed to be 70 kg. The hepatic CL (CLliver) was also predicted by physiologically based in vitro–in vivo extrapolation (IVIVE) method using physiological parameters listed in Table 1 based on the well stirred model (Yang, Jamei, Yeo, Rostami‐Hodjegan, & Tucker, 2007).
Since the CLliver was underestimated in rats and dogs from CLint in liver microsomes, the ratio of observed in vivo CLint and predicted CLint was calculated as the empirical scaling factor (ESF) for the extrapolation of CLliver from in vitro data. Human CLliver was predicted from CLint in HLMs with and without applying the average of ESF derived from rats and dogs. The total plasma clearance (CLtotal) was calculated by Equation (4): (4) CLtotal=QH×fu×(CLint/fu,mic)/QH+(fu/Rb)×(CLint/fu,mic)+CLrenal where QH is hepatic blood flow, fu is the free fraction in plasma, fu,mic is the fraction unbound in HLMs, Rb is blood‐to‐plasma ratio, and CLrenal is renal clearance. The fu,mic value was calculated using the Simcyp population based simulator (Version 16 R1; Simcyp Ltd.). The CLrenal was estimated by multiplying fu by glomerular filtration rate (GFR), assuming glomerular filtration only.
The fold error of the difference between observed and predicted human PK parameters was calculated by dividing the predicted value by the observed value.

major CYP isoforms = experiment: In vitro CYP inhibition or induction potential; assay type: in vitro ADME; details: data not shown
[7] = male dogs, iv 0.5 mg/kg, mean (%CV), n=3
[8] = male dogs, po 0.5 mg/kg, mean (%CV), n=3

CC(C)NC(=O)Cn1c(-c2cccc(Cl)c2)nn(-c2ccc(CCN3CCOCC3)cc2)c1=O [THY1773]
Blood-to-plasma ratio [1]: 0.822
Blood-to-plasma ratio [2]: Theoretical limit (experimental data: 0.54)
Plasma protein binding [3]: 89.2%
Plasma protein binding [4]: 89.6%
CLrenal compared with fu × GFR ([5]; dogs): comparable to fu × GFR
CLtotal as share of hepatic blood flow ([5]; dogs, single intravenous administration): approximately 30 % of hepatic blood flow
Urinary excretion of unchanged drug ([5]; dogs, within 24 h post intravenous dosing): 2.0%
AUC0‐∞ [5, 7]: 664 (23.7) h·ng/ml
CLtotal [5, 7]: 785 (26.4) ml/h/kg
Vdss [5, 7]: 2020 (37.6) ml/kg
t1/2 [5, 7]: 3.07 (59.3) h
AUC0‐∞ [5, 8]: 307 (37.7) h·ng/ml
Cmax [5, 8]: 105 (12.3) ng/ml
F (oral bioavailability) [5, 8]: 45.0 (16.6) %
t1/2 [5, 8]: 2.40 (81.2) h
tmax [5, 8]: 0.500 (0.0) h
Predicted human CLtotal ([6]; FCIM): 0.0641 L/h/kg
Predicted human CLtotal ([6]; IVIVE method with ESF): 0.0634 L/h/kg
Predicted human CLtotal ([6]; IVIVE method without ESF): 0.015 L/h/kg
Predicted human CLtotal ([6]; Two species allometry (rat and dog)): 0.224 L/h/kg
In vitro inhibition or induction potential on major CYP isoforms (major CYP isoforms): did not have any apparent in vitro inhibition or induction potential

Reference: PMC8252455, “Prediction of a clinically effective dose of THY1773, a novel V 1B receptor antagonist, based on preclinical data” (Biopharmaceutics & Drug Disposition, 2021)
